# Data as given in patent US20150190416A1, “FILAGGRIN PRODUCTION PROMOTER, THERAPEUTIC AGENT FOR DISEASES ASSOCIATED WITH REDUCTION IN PRODUCTION OF FILAGGRIN, AND METHOD FOR SCREENING FOR SAID THERAPEUTIC AGENT” (KYOTO UNIVERSITY, priority 2012, published 2015).
# What was measured:
# GPR142 mRNA = GPR142 mRNA expression in NHEK cells, real-time PCR (Example 4); assay type: cell-based, human; conditions: Compound 1 1 μM, Ca 1.2 mM, 3 days, compared to the control
# Experimental: In this example, the expression-inducing effects of Compound 1 on GPR142 mRNA and GPR22 mRNA in NHEK cells were confirmed.
# 1) 5×10^4 cells/well of NHEK cells (Invitrogen) were plated on a 24-well plate. Then, 500 μl of a culture medium containing a medium for proliferating normal human epidermal keratinocytes (HuMedia-KG2, KURABO INDUSTRIES LTD.) supplemented with hEGF (0.1 ng/ml), insulin (10 μg/ml), hydrocortisone (0.5 μg/ml), gentamycin (50 μg/ml), amphotericin B (50 ng/ml), and bovine brain pituitary extract (BPE) (0.4%, v/v) were added to the plate, and the cells were cultured under the conditions of 37° C. and 5% CO2.
# 2) After culture under the conditions of the step 1) for 1 day, the medium was exchanged for the culture medium of the step 1) to which a DMSO solution of Compound 1 was added at 1 μM per well every day and the culture was conducted for 3 days. […]
# 3) An extraction reagent (TRIzol™, Invitrogen) was used, and according to the manufacturer's protocol, total RNA was extracted from each of cells treated with the medicament. […] Next, real-time PCR was conducted by using the following primers and SYBR™ Premix Ex Taq (Takara) with a CFX96 real-time PCR instrument according to the manufacturer's protocol, and the amounts of GPR142mRNA and GPR22mRNA expression were measured. […]
# [1] = test system: atopic dermatitis mouse model (NC/Nga); assay: Dermatitis-alleviating effect in atopic dermatitis mouse model (NC/Nga) (Example 14); assay type: in vivo
# Experimental: Experiments were conducted with raising 6- to 10-week-old atopic dermatitis-developing NC/Nga mice with mites (Japan SLC, Inc.) under a normal environment. Namely, the dermatitis-alleviating effect was measured by the oral administration of 500 μl of a solution obtained by dissolving Compound 1 at 0.75 mg/ml in a methyl cellulose solution (0.5 W/V % Methyl Cellulose 400 Solution, Wako, 133-14255) to an NC/Nga mouse developing dermatitis majorly in the ear auricles and the head (0.375 mg of Compound 1 was administered to the mouse per time) every other day. As a control, 500 μl of the methylcellulose solution were administered orally every other day.
# With regard to clinical manifestations, the evaluation was conducted on a four-point scale of none (0), weak (1), moderate (2), and severe (3) by visual inspection for four items of erythema, edema, erosion, and squama. The evaluated values of the four items were summed to give a score before the start of oral administration (0 wk), 4 weeks after the oral administration (4 wk), and 8 weeks after the oral administration (8 wk), and then the clinical manifestations of a mouse model were measured as a clinical score. Further, the oral administration was ended 8 weeks after the start of oral administration, and thereafter, the mouse was continued to be kept under the same conditions. 4 weeks after the end of oral administration (12 wk after the start of oral administration), clinical manifestations were scored in the same manner.
# A TEWL was measured 8 and 12 weeks after the start of oral administration in the above-mentioned section (i) using a tape type closed chamber system water transpiration measuring instrument VAPO SCAN AS-VT100RS (ASAHI BIOMED) according to the manufacturer's manual.
# The appearances of the developing NC/Nga mice 12 weeks after the start of oral administration (the oral administration was ended 8 weeks after the start of oral administration) in (i) described above were shown in FIGS. 16(a) and 16(b).
# FLG monomer = FLG monomer in FLG gene mutant mice (flaky tail mice), Western blotting (Example 13); assay type: in vivo, mouse; conditions: 1 μM 10 μl/ear intradermally, ear epidermis after 8 days
# Experimental: In this example, the expression-increasing effect of Compound 1 (N-quinolylbenzamide derivative) on FLG monomer was confirmed by using FLG gene homozygous or heterozygous mutant mouse (Jackson Laboratory, flaky tail mice). The expression of the FLG protein was confirmed by Western blotting.
# 1) Compound 1 (1 μM) dissolved in ultrapure water (milliQ, EMD Millipore) was injected intradermally to left and right ears of an FLG homozygous or heterozygous mutant mouse (10 μl/ear). As a control, ultrapure water (milliQ, EMD Millipore) was injected intradermally in the same manner.
# 2) After 3 days, Compound 1 or ultrapure water was further injected intradermally in the same manner.
# 3) After 8 days, ears of each mouse were cut under anesthesia, the skin of the cut ear was peeled off by pinching cartilage, and the skin on the dermal side was soaked in PBS containing 20 mM EDTA at 37° C. for 30 minutes. Next, the epidermis of the ear was peeled off and […] of Lysis buffer (0.1 M Tris-HCl (pH 9.0), 6 M Urea, 1% 2-mercapto-ethanol, 1% SDS, 1 mM EDTA, and Protease inhibitor cocktail) were added to the epidermis, and the epidermis was homogenized with an electrically powered pestle in the same manner as in the step 4) of Example 11 to prepare a sample. The sample was subjected to electrophoresis, and then to western blotting to confirm the expression of FLG monomer. […]
smiles,measurement,setting,value
"CCc1ccc(OCc2ccccc2C(=O)Nc2ccc3nc(C)cc(N)c3c2)cc1.Cl [Compound 1, N-(4-Amino-2-methyl-6-quinolyl)-2-[(4-ethylphenoxy)methyl]benzamide hydrochloride]",GPR142 mRNA expression (GAPDH ratio),GPR142 mRNA,GPR142 mRNA expression was induced
same,appearance of developing NC/Nga mouse,"[1]; 12 weeks after start of oral administration, 4 weeks after the end",almost good clinical manifestations were kept
same,amount of water transpiration (TEWL),"[1]; NC/Nga mouse, 4 weeks after the end of oral administration (12 weeks after the start)",suppressed as compared to the control
same,clinical manifestations of dermatitis (clinical score),"[1]; NC/Nga mouse, 4 weeks after the end of oral administration (12 wk after the start)",symptoms of dermatitis were suppressed as compared to the control
same,clinical manifestations of dermatitis (clinical score),"[1]; NC/Nga mouse, oral 0.375 mg every other day, 8 weeks after the start of oral administration",symptoms of dermatitis were alleviated
same,transepidermal water loss (TEWL),"[1]; developing NC/Nga mouse, oral 0.375 mg every other day, after 8 weeks, control about 60",about 10 g/h·m^2
same,production of FLG monomer,FLG monomer; FLG heterozygous mutant mouse,production of the FLG monomer caused by Compound 1 was confirmed
same,production of FLG monomer,FLG monomer; FLG homozygous mutant mouse,production of the FLG monomer was not observed
